Columns and labels:
[1] = tested on: pupil; assay: Pupil dilation measured with Neuroptics pupillometer after α-2 agonist pre-treatment and/or phenylephrine; format: in vivo, human
Protocol: Dilation medication used was Phenylephrine hydrochloride 10% (Akorn, Inc). Pupillometer used was a Neuroptics DP-2000 Binocular Pupillometer).
Dilation using phenylephrine hydrochloride 10% was conducted in both eyes of the test subject to use as a control against the other compounds being tested.
After this, dilation using phenylephrine hydrochloride 2.5% or phenylephrine hydrochloride 10% was conducted to investigate the effects of the compound on pupil dilation.
Apracionidine 0.5% was administered in the right eye of the test subject three (3) times a day for 4 days. After this, dilation using phenylephrine hydrochloride 10% was conducted to investigate the effects of the compound on pupil dilation.
After this, dilation using phenylephrine hydrochloride 10% was conducted to investigate the effects of the compound on pupil dilation.
A washout period of multiple months was undertaken in between each experiment.
Pupil measurements were obtained using a Neuroptics pupillometer. Parameters were as follows: Scotopic conditions for 1 second, followed by photopic conditions for 4 seconds (1258.925 lux), followed by scotopic conditions for 10 seconds. This allowed for investigation of scotopic pupil size, photopic pupil size, and scotopic pupil size recovery after the light stimulus concluded.
The pupils of the subject's pretreated right eye and untreated control left eye were then measured under both scotopic and photopic conditions for baseline measurements (FIG. 6A). Photopic conditions consisted of a 4 second window where a light was shining in both eyes simultaneously. […]
The experiment was repeated at a higher dosage wherein the subject was administered a second ophthalmic formulation containing 10% phenylephrine to both eyes. 30 minutes after instillation of 10% phenylephrine, the pupils of the subject were then measured under both scotopic and photopic conditions (FIG. 6C). […] Because the area of a circle is dependent on the radius squared (area of a circle=πr^2), the increase in area that is created from a increasing the pupil dilation size is not linear.
The results were then compared.

[2] = tested on: α receptors (α2:α1); settings: affinity ratio; cited from earlier work
[3] = after pre-treatment of right eye only, 3 times a day for 4 days, before phenylephrine
[4] = after pre-treatment of right eye only, 3 times a day for 4 days, before phenylephrine, left eye not treated
[5] = dilation pre and post treatment with α 2 agonist: treated eye vs control measurements of same eye
[6] = non-treated eye dilation compared to treated eye dilation
[7] = photopic conditions (1258.925 lux) after dilation with phenylephrine 10%
[8] = photopic conditions (1258.925 lux) after dilation with phenylephrine 10%, eye without pre-treatment
[9] = right eye pre-treated 3 times a day for 4 days, then phenylephrine 10% both eyes
[10] = right eye pre-treated 3 times a day for 4 days, then phenylephrine 10% both eyes, left eye not pre-treated

**Q.** With `Nc1cc(Cl)c(N=C2NCCN2)c(Cl)c1` [Apraclonidine, apraclonidine] as the compound, how does the “effect of pre-treatment on dilation” value ([1]; after dilation with phenylephrine hydrochloride 10%) read?
**A.** The value was “hindered dilation”.

**Q.** What about the “CH LStim Ave” value [1, 3] of the same compound?
**A.** Its value is 62%.

**Q.** What about the “CH RPupil Ave” value [1, 3] of the same compound?
**A.** Its value is 61%.

**Q.** And the “CH RStim Ave” value [1, 3]?
**A.** Its value is 62%.

**Q.** What about the “CH Right” value [1, 3] of the same compound?
**A.** Its value is 61%.

**Q.** And the “CLAT LStim Ave” value [1, 3]?
**A.** The value was 0.21 s.

**Q.** And the “CLAT RPupil Ave” value [1, 3]?
**A.** Its value is 0.21 s.

**Q.** And the “CLAT RStim Ave” value [1, 3]?
**A.** The value was 0.21 s.

**Q.** And the “CLAT Right” value [1, 3]?
**A.** Its value is 0.21 s.

**Q.** And the “DELTA LStim Ave” value [1, 3]?
**A.** Its value is 4.25 mm.

**Q.** What about the “DELTA RPupil Ave” value [1, 3] of the same compound?
**A.** Its value is 4.20 mm.

**Q.** And the “DELTA RStim Ave” value [1, 3]?
**A.** Its value is 4.25 mm.

**Q.** And the “DV LStim Ave” value [1, 3]?
**A.** Its value is 1.08 mm/s.

**Q.** What about the “DV RPupil Ave” value [1, 3] of the same compound?
**A.** Its value is 1.19 mm/s.

**Q.** And the “DV RStim Ave” value [1, 3]?
**A.** Its value is 1.08 mm/s.

**Q.** What about the “DV Right” value [1, 3] of the same compound?
**A.** The value was 1.19 mm/s.

**Q.** And the “MCV LStim Ave” value [1, 3]?
**A.** Its value is 5.93 mm/s.

**Q.** And the “MCV RPupil Ave” value [1, 3]?
**A.** The value was 6.01 mm/s.

**Q.** And the “MCV RStim Ave” value [1, 3]?
**A.** Its value is 5.93 mm/s.

**Q.** What about the “Max LStim Ave” value [1, 3] of the same compound?
**A.** The value was 6.87 mm.

**Q.** What about the “Max RStim Ave” value [1, 3] of the same compound?
**A.** The value was 6.87 mm.

**Q.** What about the “Max Right” value [1, 3] of the same compound?
**A.** Its value is 6.91 mm.

**Q.** What about the “Min LStim Ave” value [1, 3] of the same compound?
**A.** Its value is 2.62 mm.

**Q.** And the “Min RPupil Ave” value [1, 3]?
**A.** The value was 2.71 mm.

**Q.** What about the “Min RStim Ave” value [1, 3] of the same compound?
**A.** Its value is 2.62 mm.

**Q.** And the “Min Right” value [1, 3]?
**A.** Its value is 2.71 mm.

**Q.** What about the “CH LPupil Ave” value [1, 4] of the same compound?
**A.** The value was 63%.

**Q.** And the “CH Left” value [1, 4]?
**A.** Its value is 63%.

**Q.** What about the “CLAT LPupil Ave” value [1, 4] of the same compound?
**A.** The value was 0.21 s.

**Q.** And the “CLAT Left” value [1, 4]?
**A.** Its value is 0.21 s.

**Q.** And the “DELTA Left” value [1, 4]?
**A.** Its value is 4.28 mm.

**Q.** What about the “DV Left” value [1, 4] of the same compound?
**A.** Its value is 0.97 mm/s.

**Q.** What about the “MCV Left” value [1, 4] of the same compound?
**A.** The value was 5.85 mm/s.

**Q.** And the “Max Left” value [1, 4]?
**A.** The value was 6.82 mm.

**Q.** And the “Min Left” value [1, 4]?
**A.** Its value is 2.54 mm.

**Q.** And the “Pupil size change (%)” value [1, 5]?
**A.** Its value is −17.83%.

**Q.** What about the “Surgical work area change (%)” value [1, 5] of the same compound?
**A.** Its value is −32.48%.

**Q.** And the “Pupil size change (%)” value [1, 6]?
**A.** Its value is −40.4%.

**Q.** What about the “Surgical work area (%)” value [1, 6] of the same compound?
**A.** Its value is −64.48%.

**Q.** What about the “Pupil size, Treated eye” value [1, 7] of the same compound?
**A.** Its value is 2.95 mm.

**Q.** And the “Surgical Work area, Treated eye” value [1, 7]?
**A.** Its value is 6.831 mm^2.

**Q.** What about the “Pupil size, Non-treated eye” value [1, 8] of the same compound?
**A.** The value was 4.95 mm.

**Q.** And the “Surgical Work area, Non-treated eye” value [1, 8]?
**A.** Its value is 19.23 mm^2.

**Q.** What about the “CH LStim Ave” value [1, 9] of the same compound?
**A.** Its value is 54%.

**Q.** And the “CH RPupil Ave” value [1, 9]?
**A.** The value was 62%.

**Q.** What about the “CH RStim Ave” value [1, 9] of the same compound?
**A.** The value was 54%.

**Q.** And the “CH Right” value [1, 9]?
**A.** The value was 62%.

**Q.** What about the “CLAT LStim Ave” value [1, 9] of the same compound?
**A.** The value was 0.22 s.

**Q.** And the “CLAT RPupil Ave” value [1, 9]?
**A.** Its value is 0.21 s.

**Q.** And the “CLAT RStim Ave” value [1, 9]?
**A.** Its value is 0.22 s.

**Q.** What about the “CLAT Right” value [1, 9] of the same compound?
**A.** Its value is 0.21 s.

**Q.** What about the “DELTA LStim Ave” value [1, 9] of the same compound?
**A.** Its value is 4.59 mm.

**Q.** And the “DELTA RPupil Ave” value [1, 9]?
**A.** Its value is 4.88 mm.

**Q.** What about the “DELTA RStim Ave” value [1, 9] of the same compound?
**A.** Its value is 4.59 mm.

**Q.** And the “DV LStim Ave” value [1, 9]?
**A.** Its value is 1.21 mm/s.

**Q.** And the “DV RPupil Ave” value [1, 9]?
**A.** Its value is 1.18 mm/s.

**Q.** And the “DV RStim Ave” value [1, 9]?
**A.** The value was 1.21 mm/s.

**Q.** What about the “DV Right” value [1, 9] of the same compound?
**A.** Its value is 1.18 mm/s.

**Q.** And the “MCV LStim Ave” value [1, 9]?
**A.** The value was 3.80 mm/s.

**Q.** And the “MCV RPupil Ave” value [1, 9]?
**A.** The value was 5.03 mm/s.

**Q.** What about the “MCV RStim Ave” value [1, 9] of the same compound?
**A.** The value was 3.80 mm/s.

**Q.** What about the “Max LStim Ave” value [1, 9] of the same compound?
**A.** Its value is 8.54 mm.

**Q.** And the “Max RStim Ave” value [1, 9]?
**A.** The value was 8.54 mm.

**Q.** And the “Max Right” value [1, 9]?
**A.** The value was 7.83 mm.

**Q.** And the “Min LStim Ave” value [1, 9]?
**A.** The value was 3.95 mm.

**Q.** And the “Min RPupil Ave” value [1, 9]?
**A.** The value was 2.95 mm.

**Q.** What about the “Min RStim Ave” value [1, 9] of the same compound?
**A.** Its value is 3.95 mm.

**Q.** What about the “Min Right” value [1, 9] of the same compound?
**A.** Its value is 2.95 mm.

**Q.** What about the “CH LPupil Ave” value [1, 10] of the same compound?
**A.** Its value is 46%.

**Q.** And the “CH Left” value [1, 10]?
**A.** The value was 46%.

**Q.** What about the “CLAT LPupil Ave” value [1, 10] of the same compound?
**A.** The value was 0.23 s.

**Q.** And the “CLAT Left” value [1, 10]?
**A.** The value was 0.23 s.

**Q.** And the “DELTA Left” value [1, 10]?
**A.** Its value is 4.30 mm.

**Q.** And the “DV Left” value [1, 10]?
**A.** Its value is 1.24 mm/s.

**Q.** And the “MCV Left” value [1, 10]?
**A.** Its value is 2.58 mm/s.

**Q.** And the “Max Left” value [1, 10]?
**A.** The value was 9.25 mm.

**Q.** What about the “Min Left” value [1, 10] of the same compound?
**A.** The value was 4.95 mm.

**Q.** What about the “α2:α1 affinity” value [2] of the same compound?
**A.** Its value is 150.

Source: patent US11738022B2, “Methods for inducing pupil dilation” (THE REGENTS OF THE UNIVERSITY OF COLORADO, A BODY CORPORATE, priority 2017, dated 2023)
